Results reported in US12162897B2, “1,4-sulfur-bridged polycyclic compounds containing dihydrobenzofuran structure, its preparation method and application thereof” (Chengdu University, priority 2021, dated 2024).

Experiments:
[1] = tested on: human lung cancer cells A549; assay: Cell viability assay, human lung cancer cells A549; type: cell-based; settings: 5000 cells per well, 96-well plate, 48 hours with compound, mean of repeats
Procedure: (§1) Specific experimental operations: 5000 human leukemia cells K562 and human lung cancer cells A549 are seeded into 96-well cell culture plates respectively to grow for 24 hours. Then, a predetermined concentration of the above synthesized compounds are added respectively, wherein the antitumor drug cisplatin is used as a control for 48 hours. The mean 50% inhibitory concentration (IC50) of all compounds is then determined. Each concentration is repeated at least three times, and all experiments are repeated three times, and the average results obtained are shown in Table 1.

[2] = tested on: human leukemia cells K562; assay: Cell viability assay, human leukemia cells K562; type: cell-based; settings: 5000 cells per well, 96-well plate, 48 hours with compound, mean of repeats
Procedure: as §1

| SMILES | IC50 ([1]; Homo sapiens, A549, 48 h) | IC50 ([2]; Homo sapiens, K562, 48 h) | IC50 [1] | IC50 [2] |
| --- | --- | --- | --- | --- |
| N.N.[Cl][Pt][Cl] [Cisplatin, cisplatin, reference compound] | – | – | 24 µM | 20.3 µM |
| C[C@@]12S[C@@](c3ccccc3F)(NC1=O)[C@]1([N+](=O)[O-])Oc3ccccc3[C@H]21 [I-ab] | 57 µM | 52.2 µM | – | – |
| C[C@@]12S[C@@](c3ccc(F)cc3)(NC1=O)[C@]1([N+](=O)[O-])Oc3ccccc3[C@H]21 [I-ac] | 58.2 µM | 74.6 µM | – | – |
| C[C@@]12S[C@@](c3ccc(Cl)cc3)(NC1=O)[C@]1([N+](=O)[O-])Oc3ccccc3[C@H]21 [I-ad] | 40 µM | 50.2 µM | – | – |
| C[C@@]12S[C@@](c3ccc(Br)cc3)(NC1=O)[C@]1([N+](=O)[O-])Oc3ccccc3[C@H]21 [I-ae] | 45.5 µM | 54.7 µM | – | – |
| C[C@@]12S[C@@](c3cccc(Br)c3F)(NC1=O)[C@]1([N+](=O)[O-])Oc3ccccc3[C@H]21 [I-af] | 39.5 µM | 46.4 µM | – | – |
| C[C@@]12S[C@@](c3cccc(Br)c3F)(NC1=O)[C@]1([N+](=O)[O-])Oc3ccccc3[C@H]21 [I-ag] | – | – | 44.6 µM | 30.2 µM |
| C[C@@]12S[C@@](c3ccccc3)(NC1=O)[C@]1([N+](=O)[O-])Oc3c(F)cccc3[C@H]21 [I-ca] | 57.7 µM | 19 µM | – | – |
| C[C@@]12S[C@@](c3ccccc3)(NC1=O)[C@]1([N+](=O)[O-])Oc3cccc(Cl)c3[C@H]21 [I-da] | 34.3 µM | 10.3 µM | – | – |
| C[C@@]12S[C@@](c3ccccc3)(NC1=O)[C@]1([N+](=O)[O-])Oc3ccc(Cl)cc3[C@H]21 [I-ea] | 45.3 µM | 21.4 µM | – | – |
| C[C@@]12S[C@@](c3ccccc3)(NC1=O)[C@]1([N+](=O)[O-])Oc3ccc(Br)cc3[C@H]21 [I-fa] | 67.6 µM | 30.9 µM | – | – |
| C[C@@]12S[C@@](c3ccccc3)(NC1=O)[C@]1([N+](=O)[O-])Oc3ccc([N+](=O)[O-])cc3[C@H]21 [I-ha] | 67.3 µM | 22.3 µM | – | – |
| Cc1ccc2c(c1)O[C@]1([N+](=O)[O-])[C@H]2[C@]2(C)S[C@@]1(c1ccccc1)NC2=O [I-ia] | 33.3 µM | 14.5 µM | – | – |
| CC(C)(C)c1ccc2c(c1)[C@@H]1[C@]3(C)S[C@@](c4ccccc4)(NC3=O)[C@]1([N+](=O)[O-])O2 [I-ka] | 33 µM | 29.6 µM | – | – |

Further lines, with some results ahead:

| IC50 ([1]; Homo sapiens, A549, 48 h) | IC50 ([2]; Homo sapiens, K562, 48 h) | SMILES | IC50 [1] | IC50 [2] |
| --- | --- | --- | --- | --- |
| 28.2 µM | 12.4 µM | C[C@@]12S[C@@](c3ccccc3)(NC1=O)[C@]1([N+](=O)[O-])Oc3ccccc3[C@H]21 [I-aa] | – | – |
| 20.5 µM | 59.4 µM | C[C@@]12S[C@@](c3ccc4ccccc4n3)(NC1=O)[C@]1([N+](=O)[O-])Oc3ccccc3[C@H]21 [I-ah] | – | – |
| 23.9 µM | 32.3 µM | C[C@@]12S[C@@](c3ccccn3)(NC1=O)[C@]1([N+](=O)[O-])Oc3ccccc3[C@H]21 [I-ai] | – | – |
| 32.6 µM | 13 µM | C[C@@]12S[C@@](c3ccccc3)(NC1=O)[C@]1([N+](=O)[O-])Oc3ccc(F)cc3[C@H]21 [I-ba] | – | – |
| 30.8 µM | 7.09 µM | C[C@@]12S[C@@](c3ccccc3)(NC1=O)[C@]1([N+](=O)[O-])Oc3cc(Br)ccc3[C@H]21 [I-ga] | – | – |
| 4.83 µM | 2.6 µM | COc1ccc2c(c1)O[C@]1([N+](=O)[O-])[C@H]2[C@]2(C)S[C@@]1(c1ccccc1)NC2=O [I-ja] | – | – |
| 15.6 µM | 3.1 µM | COc1cc(Br)cc2c1O[C@]1([N+](=O)[O-])[C@H]2[C@]2(C)S[C@@]1(c1ccccc1)NC2=O [I-la] | – | – |
